Like-named read-outs stand apart in the source and are kept apart here.
Legend:
[1] = system: reconstituted human corneal epithelium; assay: Modified EPIOCULAR test with or without ascorbic acid overlay, MTT viability
Experimental: To include the antioxidant mixture in cell-based assays, the mix can be added to the medium or the test sample. Per the EPIOCULAR protocol by MatTek Corporation, the EpiOcular Assay Medium should be warmed to approximately 37° C. […] The standard operating procedures are listed as follows:
Tissue Preincubation • 1) RhCE tissues (purchased from MatTek Corporation) are equilibrated for about 15 min. • 2) The antioxidant is added to the Assay Medium and used for all steps that follow and/or the antioxidant is added to the test chemical or overlayed over the tissue prior to test chemical exposure. […] The tissues were then incubated at standard culture conditions for 30±2 min. • 3) Antioxidant procedure: The test article used was Styrene (CASRN 100-42-5, Lot No. MKCM4502). […] Modifications Required for Solids • 1) Each solid is tested by applying one leveled volumetric spoonful of material to be tested into tissue insert (approximately 50 mg). and incubated for 6 hours. • 2) Rinsing: At the end of the 6 hours, the test articles are removed by rinsing (as above). • 3) Post-treatment: After rinsing, the tissue inserts are immersed in 5 mL of previously warmed Assay Medium • 4) Recovery: Next, each insert is removed from the Assay Medium, and transferred to a plate containing 1 mL of Medium. The tissues are then incubated for 18 hours under cell culture. Cell Viability Test • 1) After the post-treatment incubation, the MTT viability test is done. • 2) A 1.0 mg/mL MTT solution is prepared and 300 μL of the MTT solution is added to each well of a 24-well plate. each insert is removed from the 6-well plate and placed into the 24-well plate containing 0.3 mL of MTT solution. The plate is then incubated for 3 hours under culture conditions. • 3) After incubation, each insert is removed from the 24-well plate and then transferred to a 24-well plate containing 2.0 mL of isopropanol. […] Alternative Visual Determination of Viability and Irritant Prediction • 1) Since viable cells turn MTT purple, the relative viability of one tissue to the next can be determined by a visual inspection. […]

[2] = pH 6.36
[3] = OPTISAFE in vitro ocular irritation test, original formulation without antioxidants; conditions: for OPTISAFE (no antioxidant) Score AVG: ROS/CL chemicals; for OPTISAFE (no antioxidant) Score AVG / OPTISAFE Score AVG: triplicate assays; for OPTISAFE Score AVG: original formulation without antioxidants
Experimental: Surfactants were diluted.
Next a study was conducted to determine if the addition of antioxidants changes the reliability (repeatability) of the test method. After this, a large study determined if antioxidants specifically reduce the false positive rate without impacting the true positive rate and the true negative rate and then all prior test chemicals were rested with antioxidants in triplicate.

[4] = no antioxidants, predicted GHS class, cited from earlier work
[5] = OS2 (OPTISAFE2), OPTISAFE formulation with antioxidants
[6] = Table 7B, consensus of past application domain study

## C=Cc1ccccc1 [Styrene]
[1]; ascorbic acid (0.3 mg/ml) in PBS overlay and culture medium
  prediction, Condition 2: nonirritant (TN)
[1]; ascorbic acid (0.3 mg/ml) in PBS overlay and culture medium, MTT, visual
  cell killing, Condition 2: significantly less cell killing
[1]; no ascorbic acid added, 50 μL, 30 min exposure, MTT, visual
  cell killing, Condition 1: extensive cell killing
[2]
  OS2 (with antioxidant) Score AVG: 3.5 ± 0.8
[3]
  OPTISAFE (no antioxidant) Score AVG: 53.5 ± 10.1

## CCC(O)C(C)(C)C (centres unmarked) [2,2-Dimethyl-3-pentanol]
[4]; Table 7A, consensus of past transferability study
  OS Cons: 2
[2]
  OS2 Score AVG: 15.1 ± 0.4
[3]
  OPTISAFE prediction without the antioxidant mixture: overpredicted
  OPTISAFE Score AVG: 19.2 ± 1.2

## C=C(C)C(=O)OCCOCC [2-Ethoxyethyl methacrylate]
[4]; [6]
  OS Cons: 1
[2]
  OS2 (with antioxidant) Score AVG: 14.5 ± 2.7
  OS2 Cons: 2
  OS2 R1: 2
[3]
  OPTISAFE (no antioxidant) Score AVG: 97.1 ± 18.2

## c1ccc(OP(Oc2ccccc2)Oc2ccccc2)cc1 [Triphenyl phosphite]
[5]; Table 7B, majority prediction of the triplicate assays
  OS2 Cons: 1
[5]; Table 7B, repeat 1, with antioxidants, predicted GHS class
  OS2 R1: 1
[5]; Table 7B, repeat 3, with antioxidants, predicted GHS class
  OS2 R3: 1
[5]; new formulation with antioxidants at the in vivo concentration, triplicate assays
  OS2 Score AVG: 169.0 ± 9.9
[4]; [6]
  OS Cons: 1
[3]
  OPTISAFE Score AVG: 113.3 ± 2.1
